Data from patent US8637681B2, “Pyrrolyl substituted dihydroindol-2-one derivatives, preparation methods and uses thereof” (Qilu Pharmaceutical Co., Ltd., priority 2010, dated 2014).

Key:
[1] = Cytotoxicity test (SRB), A549; type: cell-based; settings: human, A549 non-small cell lung cancer cells
Protocol: (§1) Cytotoxicity of the compounds of the present invention was tested with human non-small cell lung cancer cells A549, human cervical cancer Hela cells, human skin cancer cells A431. The test was performed by referring to the method described by Rusnak et al (Rusnak D. W., et al., Cell Prolif., 2007, 40, 580-94).
(§2) In Dulbecco's Modified Eagle Medium (DMEM) comprising 10% fetal bovine serum, 2 mM glutamine and non-essential amino acids, cells were cultured at 37° C. in 5% CO2 cell incubator. Trypsin/ethylenediamine tetraacetic acid (EDTA) were used to harvest cells in cell culture bottle. The cells were added to a 96-well cell culture plate, 4000/well (0.1 ml medium), adhering wall overnight, 0.1 ml of the diluted solution of the compounds to be tested was added, the final concentration of DMSO was 0.25%. The cell culture plate was incubated at 37° C., 5% CO2 conditions for 72 h. The change of cellular morphology was observed under microscope, and then 50 μl of 50% (mass/volume) trichloroacetic acid (TCA) was added to each well to fix cells. The final concentration of TCA was 10%. It stood for 5 min, than was placed in 4° C. refrigerator for 1 h, the wells of the culture plate were washed with deionized water for 5 times to remove TCA, drained, dried in air until no wet trace was observed. 100 μl of 0.4% (mass/volume) SRB was added to each well, stood at room temperature for 10 min. The liquid in each well was discarded, and then the wells were washed with 1% acetic acid for 5 times, dried in air, extracted with 150 μl of 10 mM Tris base (trihydroxymethylaminomethane, pH 10.5). The absorption at a wavelength of 540 nm was measured. The IC50 (μM) of the compound was calculated using Logit method.

[2] = Cytotoxicity test (SRB), Hela; type: cell-based; settings: human, Hela cervical cancer cells
Protocol: Cytotoxicity of the compounds of the present invention was tested with human non-small cell lung cancer cells A549, human cervical cancer Hela cells, human skin cancer cells A431. The test was performed by referring to the method described by Rusnak et al (Rusnak D. W., et al., Cell Prolif., 2007, 40, 580-94). […] Trypsin/ethylenediamine tetraacetic acid (EDTA) were used to harvest cells in cell culture bottle. The cells were added to a 96-well cell culture plate, 4000/well (0.1 ml medium), adhering wall overnight, 0.1 ml of the diluted solution of the compounds to be tested was added, the final concentration of DMSO was 0.25%. The cell culture plate was incubated at 37° C., 5% CO2 conditions for 72 h. […] The absorption at a wavelength of 540 nm was measured. The IC50 (μM) of the compound was calculated using Logit method.

[3] = system: arterial ring angiogenesis in rats; assay: Inhibitory actions on arterial ring angiogenesis in rats; type: cell-based; settings: Rattus norvegicus, area covered by micrangiums vs control well, read-out: Inhibitory rate (%); for inhibition at 0.2 µg/mL: 0.2 μg/ml; for inhibition at 1 µg/mL: 1 μg/ml; for inhibition at 5 µg/mL: 5 μg/ml
Protocol: This experiment was conducted by referring to the method described by R. F. Nicosia et al (Nicosia, R. F., et al. Am J Pathol., 1997, 151, 1379-1386). Rats were executed by cervical dislocation. The thoracic aorta was carefully separated, and placed in a container with physiological saline. The excess tissues were carefully cut off. The blood vessels were cut with a pair of ophthalmic scissors to form 1 mm thick vascular ring slices. To a pre-cooled 96-well cell culture plate, one separated vascular ring was placed in the center of each well. 70 μl of pre-molten Matrigel was carefully added to cover the vascular ring, which was incubated at 37° C. for 1 h so as to solidify it. […] The sample was placed in incubator for conventional culture, and each compound was tested at least in two repeated wells, and each test was repeated twice. […] The fresh culture medium was replaced every 3 days, and the drug was changed at the same time. The survival status of vascular rings was observed under microscope, and pictures were taken at the same time. Image Pro Plus software was used to calculate the area covered by micrangiums. The average inhibition rate was calculated by using the formula: inhibition rate (%)=(area of control well−area of drug well)/area of control well×100%.

[4] = Cytotoxicity test (SRB), A431; type: cell-based; settings: human, A431 skin cancer cells
Protocol: as §1, §2

[5] = system: human colon cancer HT 29 transplanted tumor; assay: Nude mice transplanted tumor test; type: in vivo, female Balb/cA nude mice; design: key to d21 Vave ± SD (average tumor volume): tumor volume TV = ½×a×b² (a, b = major, minor diameter), in mm³; settings: for Dead animal number / inhibition in vivo at 80 mg/kg / d21 Wave ± SD (average bodyweight of nude mice) / d21 Vave ± SD (average tumor volume) / d21 RTV ± SD (relative tumor volume): 80 mg/kg intragastrically each day for 20 days; for Dead animal number: dead/total animals; for Activity of inhibiting HT-29 transplanted tumor in vivo (in words): 80 mg/kg, compared with positive control Sunitinib; for inhibition in vivo at 80 mg/kg: Mus musculus, HT-29, po, 504 h, (1−T/C)×100%, read-out: Tumor inhibition rate d21 (%); for inhibition in vivo at 80 mg/kg / d21 Wave ± SD (average bodyweight of nude mice) / d21 Vave ± SD (average tumor volume) / d21 RTV ± SD (relative tumor volume): d21; for d0 Wave ± SD (average bodyweight of nude mice): d0, at grouping before administration (baseline); for d21 Vave ± SD (average tumor volume): HT 29 in nude mice; for d21 RTV ± SD (relative tumor volume): RTV=Vt/V0
Protocol: The nude mice transplanted tumor test used female Balb/cA nude mice, and tumor strains were human colon cancer HT 29 strains.
Under sterile condition, eugonic tumor tissues stage were cut into pieces of about 1.5 mm^3, and inoculated at right axillary fossa of the nude mice. The transplanted tumor diameter was measured by vernier caliper, and the animals were randomly grouped after the tumors grew to about 120 mm^3. The positive control group and the compounds group in a dosage of 80 mg/kg were administered intragastrically each day for consecutive 20 days. The negative control group was given equivalent amount of injection water containing 0.1% Tween 80. Tumor diameters and the bodyweight of mice were measured 2-3 times every week. The evaluation indexes observed in the test include relative tumor proliferation rate, bodyweight and general states. The formulation for calculating tumor volume (TV) is: TV=½×a×b^2, wherein a, b represent major diameter and minor diameter of tumor; Relative tumor volume (RTV) was calculated according the results of measurement by the following formula: RTV=Vt/V0, wherein V0 is tumor volume measured when dividing groups for administration, and Vt is tumor volume measured after each administration.

| SMILES | IC50 at 72 h [1] | IC50 at 72 h [2] | inhibition at 0.2 µg/mL [3] | inhibition at 1 µg/mL [3] | inhibition at 5 µg/mL [3] | IC50 at 72 h [4] | Dead animal number [5] | Activity of inhibiting HT-29 transplanted tumor in vivo (in words) [5] | inhibition in vivo at 80 mg/kg [5] | d0 Wave ± SD (average bodyweight of nude mice) [5] | d21 Wave ± SD (average bodyweight of nude mice) [5] | d21 Vave ± SD (average tumor volume) ([5]; in mm³ (unit assumed)) | d21 RTV ± SD (relative tumor volume) [5] | d21 Vave ± SD (average tumor volume) [5] |
| --- | --- | --- | --- | --- | --- | --- | --- | --- | --- | --- | --- | --- | --- | --- |
| CCN(CC)CCC(=O)Nc1c(C)[nH]c(/C=C2\C(=O)Nc3ccc(F)cc32)c1C [Compound 1, N-{5-[5-fluoro-2-oxo-1,2-dihydro-indol-(3Z)-ylidenemethyl]-2,4-dimethyl-1H-pyrrol-3-yl}-3-(N,N-diethylamino)propionamide] | > 30 µM | > 30 µM | 99% | 100% | 100% | > 30 µM | 0/6 | inhibitory activity comparable to the positive control Sunitinib | 86.9% | 18.6 ± 1.20 | 18.8 ± 2.97 | 102.8 ± 26.2 | 0.94 ± 0.12 | – |
| CCN(CC)CCC(=O)Nc1c(C)[nH]c(/C=C2\C(=O)Nc3ccc(Cl)cc32)c1C [Compound 2, N-{5-[5-chloro-2-oxo-1,2-dihydro-indol-(3Z)-ylidenemethyl]-2,4-dimethyl-1H-pyrrol-3-yl}-3-(N,N-diethylamino)propionamide] | > 30 µM | > 30 µM | 94% | 100% | 100% | > 30 µM | 0/6 | – | 63.8% | 18.8 ± 0.35 | 19.9 ± 0.68 | – | 2.60 ± 0.52 | 300.3 ± 36.8 |
| Cc1[nH]c(/C=C2\C(=O)Nc3ccc(F)cc32)c(C)c1NC(=O)/C=C/CN(C)C [Compound 4, N-{5-[5-fluoro-2-oxo-1,2-dihydro-indol-(3Z)-ylidenemethyl]-2,4-dimethyl-1H-pyrrol-3-yl}-4-(N,N-dimethylamino)-(2E)-crotonamide] | > 30 µM | > 30 µM | 98% | 100% | 100% | > 30 µM | 0/6 | inhibitory activity comparable to the positive control Sunitinib | 91% | 19.6 ± 0.22 | 19.6 ± 0.85 | 80.0 ± 33.2 | 0.65 ± 0.28 | – |
| Cc1[nH]c(/C=C2\C(=O)Nc3ccc(F)cc32)c(C)c1NC(=O)CCCN(C)C [Compound 5, N-{5-[5-fluoro-2-oxo-1,2-dihydro-indol-(3Z)-ylidenemethyl]-2,4-dimethyl-1H-pyrrol-3-yl}-4-(N,N-dimethylamino)butyramide] | > 30 µM | > 30 µM | 93% | 100% | 100% | > 30 µM | 0/6 | – | 86.6% | 18.9 ± 1.00 | 18.6 ± 0.87 | 111.8 ± 28.2 | 0.96 ± 0.42 | – |
| Cc1[nH]c(/C=C2\C(=O)Nc3ccc(F)cc32)c(C)c1NC(=O)CCN1CCCC1 [Compound 14, N-{5-[5-fluoro-2-oxo-1,2-dihydro-indol-(3Z)-ylidenemethyl]-2,4-dimethyl-1H-pyrrol-3-yl}-3-(tetrahydropyrrol-1-yl)propionamide] | > 30 µM | > 30 µM | 88% | 100% | 100% | > 30 µM | – | – | – | – | – | – | – | – |
| Cc1[nH]c(/C=C2\C(=O)Nc3ccc(F)cc32)c(C)c1NC(=O)CN1CCN(C)CC1 [Compound 15, N-{5-[5-fluoro-2-oxo-1,2-dihydro-indol-(3Z)-ylidenemethyl]-2,4-dimethyl-1H-pyrrol-3-yl}-2-(4-methylpiperazin-1-yl)acetamide] | > 30 µM | > 30 µM | 89% | 100% | 100% | > 30 µM | – | – | – | – | – | – | – | – |
| CCN(CC)CC(=O)Nc1c(C)[nH]c(/C=C2\C(=O)Nc3cc(OC)ccc32)c1C [Compound 23, N-{5-[6-methoxy-2-oxo-1,2-dihydro-indol-(3Z)-ylidenemethyl]-2,4-dimethyl-1H-pyrrol-3-yl}-2-(N,N-diethylamino)acetamide] | > 30 µM | > 30 µM | 90% | 100% | 100% | > 30 µM | – | – | – | – | – | – | – | – |
| CCN(CC)CC(=O)Nc1c(C)[nH]c(/C=C2\C(=O)Nc3ccc(NS(C)(=O)=O)cc32)c1C [Compound 25, N-{5-[5-methylsulfonylamino-2-oxo-1,2-dihydro-indol-(3Z)-ylidenemethyl]-2,4-dimethyl-1H-pyrrol-3-yl}-2-(N,N-diethylamino)acetamide] | > 30 µM | > 30 µM | 89% | 100% | 100% | 6.57 µM | – | – | – | – | – | – | – | – |
| CCN(CC)CC(=O)Nc1c(C)[nH]c(/C=C2\C(=O)Nc3cc(C)ccc32)c1C [Compound 27, N-{5-[6-methyl-2-oxo-1,2-dihydro-indol-(3Z)-ylidenemethyl]-2,4-dimethyl-1H-pyrrol-3-yl}-2-(N,N-diethylamino)acetamide] | > 30 µM | > 30 µM | 78% | 95% | 100% | > 30 µM | – | – | – | – | – | – | – | – |
